Key:
whole blood = test: ODC (P50) of whole blood; conditions: 6:1 molar ratio of compound to hemoglobin (120 μM)
Experimental: The ODC of hemoglobin was measured with a HEMOX analyzer (TCS Scientific Corporation) at 37° C. For experiments with purified hemoglobin, hemoglobin (20 μM as tetramer) was dissolved in DPBS and antifoam (0.2 vol %, Catalog No. AFA-25, TCS Scientific Corporation) was added to prevent foaming of the sample. Compounds were prepared in DMSO stock solutions then added to hemoglobin. […] For experiments with RBCs, blood was drawn from volunteers into EDTA tubes. The blood was centrifuged for 15 min at 3,000 rpm at 4° C. The supernatant was discarded, and RBCs were washed three times with DPBS, pH 7.4 by dilution to 50% hematocrit.

[1] = test system: red blood cells from sickle cell disease patients (SRBCs); conditions: reported value; cited from earlier work
red blood cells = test: ODC of washed red blood cells in Hemox solution; type: cell-based, human; conditions: for P50 of red blood cells: mixed 1 h at 37° C.
Description: For the reduction of P50, less amount of 1 was needed, and the reaction time of 1 with hemoglobin was faster than NEM and 5HMF.

hemoglobin = target: T1, hemoglobin (Homo sapiens, UniProt P68871+P69905); test: Hemoglobin oxygen-binding assay (oxyHb %, plate format); type: biochemical; conditions: effector to hemoglobin tetramer 6 to 1 (mol/mol)
T1 construct: from tissue; host or cells: outdated donated human red blood cells (hemolysate supernatant, dialysed against DPBS)
T1 sequence (P68871 2-147 limits assumed): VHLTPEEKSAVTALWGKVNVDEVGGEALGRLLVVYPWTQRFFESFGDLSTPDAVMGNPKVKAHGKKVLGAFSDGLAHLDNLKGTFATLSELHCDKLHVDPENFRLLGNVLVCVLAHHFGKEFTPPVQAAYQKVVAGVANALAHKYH
T1 sequence (P69905 2-142 limits assumed): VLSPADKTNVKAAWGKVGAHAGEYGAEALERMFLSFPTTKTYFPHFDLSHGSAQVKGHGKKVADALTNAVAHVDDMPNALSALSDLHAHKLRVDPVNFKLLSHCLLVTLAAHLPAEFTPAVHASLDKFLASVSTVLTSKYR
Experimental: Test compounds (0.75 μL, 10 mM in DMSO) were added to the central area of two 384 deep well plates forming compound plates. DPBS was used as the solvent for myo-inositol hexaphosphate (IHP) and N-ethylmaleimide (NEM) (10 mM). To prevent oxidation of hemoglobin during the experiment, glucose-6-phosphate (0.4 mg/mL), glucose-6-phosphate dehydrogenase (1.0 U/mL), nicotinamide adenine dinucleotide phosphate (NADP, 0.05 mg/mL), ferredoxin (0.01 mg/mL), ferredoxin-NADP reductase (0.01 U/mL) and catalase (2×10^3 U/mL) were added to hemoglobin to produce the Hayashi reducing system, which is described in detail in Hayashi et al., Biochemica et Biophysica Acta, 1973, 310, 309-316. […]
The alteration of hemoglobin's oxygen-binding affinity by the test compounds binding to hemoglobin was evaluated in an environment where the fractional oxygen pressure (FO2) could be precisely measured and controlled. […] To confirm the allosteric effect of the test compounds, ODC of hemoglobin was measured in the presence and absence of each compound. […]
The ability of small molecules to alter the oxygen affinity of hemoglobin was determined by measuring the fraction of oxygenated hemoglobin (oxyHb %) and oxidized hemoglobin (metHb %) using spectrophotometry under three (high, medium, and low oxyHb saturation) conditions. […]

SMILES	P50 of whole blood (whole blood) [Torr]	concentration required to reduce sickling of hypoxic SS RBCs by nearly 90% [1] [mM]	P50 of red blood cells (red blood cells; 2 mM) [Torr]	P50 of RBCs (red blood cells; Compound 1 at 120 μM (6:1 to Hb tetramer), HEMOX solution, 5 vol % DMSO, 10 min at 37° C.) [Torr]	change of oxyHb % (hemoglobin)	P50 of red blood cells (red blood cells; 400 μM) [Torr]
O=Cc1ccc(CO)o1 [Compound 5-HMF, 5-(Hydroxymethyl)furfural]	26±0.5	5	9	27±0.5		
O=P(O)(O)O[C@H]1[C@H](OP(=O)(O)O)[C@@H](OP(=O)(O)O)[C@H](OP(=O)(O)O)[C@@H](OP(=O)(O)O)[C@H]1OP(=O)(O)O [IHP, myo-inositol hexaphosphate]					decrease	
CCN1C(=O)C=CC1=O [NEM, N-ethylmaleimide]	20±1.1				increase	8

From US10758569B2, “Heteroaryl disulfide compounds as allosteric effectors for increasing the oxygen-binding affinity of hemoglobin” (The General Hospital Corporation, priority 2014, dated 2020)
